# Laboratory results taken from patent US7314625B2 (priority 2000, dated 2008).
# System: P. aeruginosa PAK strain
# Format: cell-based
row,Substance,reduction of adherence to A549 cells
1,acetyl-QIDPEFK-NH2 (Ac-QIDPEFK-NH2) [scrambled peptide],did not interfere with adherence
2,acetyl-KCTSDQDEQFLPKGCSK-NH2 (Ac-KCTSDQDEQFLPKGCSK-NH2; cysteine pairing not given here) [long pilin peptide],approximately 50%
3,acetyl-DEQFIPK-NH2 (Ac-DEQFIPK-NH2) [core pilin peptide],approximately 50%
